The numbers were not newly measured in patent publication US5229007A (priority 1992, dated 1993), which cites them from elsewhere.

The subject of one data set is insect. The settings on record: in vivo.

As to `C/C=C(\C)C(=O)O[C@H]1C[C@@H](OC(C)=O)[C@@]2(C(=O)OC)CO[C@H]3[C@@H](O)[C@@](C)([C@]45O[C@@]4(C)[C@H]4C[C@@H]5O[C@@H]5OC=C[C@@]54O)[C@H]4[C@]1(CO[C@]4(O)C(=O)OC)[C@@H]32` [azadirachtin], the “insect growth regulator and feeding deterrent activity” value in the data set on insect was “potent insect growth regulator and feeding deterrent”. The “stability in alkaline solutions” value (alkaline solutions) is “degraded in alkaline solutions”. The “stability at elevated temperatures” value (elevated temperatures) is “decomposes at elevated temperatures”.
